Results as given in ChEMBL document CHEMBL1614632, “Trend analysis of a database of intravenous pharmacokinetic parameters in humans for 670 drug compounds” (Drug Metab Dispos, 2008).

Key:
[1] = clinical; conditions: human, in vivo, iv, CL
[2] = clinical; conditions: human, in vivo, iv
[3] = clinical; conditions: human, in vivo, iv; remark: listed apart in the source
[4] = clinical; conditions: human, in vivo, iv, t1/2
[5] = clinical; conditions: human, in vivo, iv, Vdss

| SMILES | clearance [1] | MRT [2] | fraction unbound [3] | half-life [4] | Vd [5] |
| --- | --- | --- | --- | --- | --- |
| CCCCC(=O)N(Cc1ccc(-c2ccccc2-c2nnn[nH]2)cc1)[C@H](C(=O)O)C(C)C | 0.49 mL/min/kg | 7.5 h | 0.04 | 9.5 h |  |
| Cc1cccc(C)c1NC(=O)NCCCNC(C)C | 4.5 mL/min/kg | 5.2 h | 0.86 | 5 h |  |
| N[C@@H](Cc1ccc(N(CCCl)CCCl)cc1)C(=O)O | 7 mL/min/kg | 1.1 h | 0.14 |  | 0.48 L/kg |
| CC(C)=CCN1CC[C@]2(C)c3cc(O)ccc3C[C@H]1[C@H]2C [(+)-PENTAZOCINE] | 23 mL/min/kg | 2.5 h | 0.39 |  | 3.4 L/kg |
| CN1CCc2cccc3c2[C@H]1Cc1ccc(O)c(O)c1-3 [APOMORPHINE] | 40 mL/min/kg |  | 0.057 |  | 1.6 L/kg |
| CN1CCCC(n2nc(Cc3ccc(Cl)cc3)c3ccccc3c2=O)CC1 (stereo not drawn) [AZELASTINE] | 9 mL/min/kg | 27 h | 0.17 | 22 h |  |
| CCc1cccc2cc(C(O)CNC(C)(C)C)oc12 (stereo not drawn) [BUFURALOL] | 8.9 mL/min/kg | 3.18 h | 0.19 | 2.3 h |  |
| CC[C@H](C)C[C@H](C)CCCCCCCCC(=O)N[C@H]1C[C@@H](O)[C@@H](NCCN)NC(=O)[C@@H]2[C@@H](O)CCN2C(=O)[C@H]([C@H](O)CCN)NC(=O)[C@H]([C@H](O)[C@@H](O)c2ccc(O)cc2)NC(=O)[C@@H]2C[C@@H](O)CN2C(=O)[C@H]([C@@H](C)O)NC1=O [CASPOFUNGIN] | 0.14 mL/min/kg | 15 h | 0.035 |  | 0.13 L/kg |
| CO[C@@]1(NC(=O)C2SC(=C(C(N)=O)C(=O)O)S2)C(=O)N2C(C(=O)O)=C(CSc3nnnn3C)CS[C@@H]21 (stereo partly drawn) [CEFOTETAN] | 0.42 mL/min/kg | 5.2 h | 0.15 | 4.5 h |  |
| CC(C)(O/N=C(\C(=O)N[C@@H]1C(=O)N2C(C(=O)[O-])=C(C[n+]3ccccc3)CS[C@H]12)c1csc(N)n1)C(=O)O [CEFTAZIDIME] | 2.4 mL/min/kg | 2.2 h | 0.79 |  | 0.31 L/kg |
| CCCC(=O)OCOC(=O)C1=C(C)NC(C)=C(C(=O)OC)C1c1cccc(Cl)c1Cl (stereo not drawn) [CLEVIDIPINE] |  | 0.07 h | 0.0038 | 0.3 h | 0.58 L/kg |
| COC(=O)[C@H]1[C@@H](OC(=O)c2ccccc2)C[C@@H]2CC[C@H]1N2C [COCAINE] |  | 1 h | 0.12 | 0.76 h |  |
| COc1ccc2c3c1O[C@H]1[C@@H](O)C=C[C@H]4[C@@H](C2)N(C)CC[C@@]341 [CODEINE] | 15 mL/min/kg | 3.9 h | 0.7 | 4 h |  |
| Nc1ccc(S(=O)(=O)c2ccc(N)cc2)cc1 [DAPSONE] |  | 29 h | 0.25 |  | 0.83 L/kg |
| CC/C=C\C/C=C\C/C=C\C/C=C\C/C=C\C/C=C/CCC(=O)O[C@@H](C(=O)O[C@H]1C[C@@]2(O)[C@@H](OC(=O)c3ccccc3)C3[C@](C)(C(=O)[C@H](OC(C)=O)C(=C1C)C2(C)C)[C@@H](O)C[C@H]1OC[C@@]31OC(C)=O)[C@@H](NC(=O)c1ccccc1)c1ccccc1 (stereo partly drawn) [DHA PACLITAXEL] | 0.025 mL/min/kg | 45 h | 0.0038 | 60 h |  |
| CC(=O)Nc1c(I)c(NC(C)=O)c(I)c(C(=O)O)c1I [DIATRIZOIC ACID] | 1.7 mL/min/kg | 2.6 h | 1 |  |  |
| C[C@H]1O[C@@H](O[C@H]2[C@@H](O)C[C@H](O[C@H]3[C@@H](O)C[C@H](O[C@H]4CC[C@@]5(C)[C@H](CC[C@@H]6[C@@H]5CC[C@]5(C)[C@@H](C7=CC(=O)OC7)CC[C@]65O)C4)O[C@@H]3C)O[C@@H]2C)C[C@H](O)[C@@H]1O [DIGITOXIN] | 0.043 mL/min/kg | 170 h | 0.066 |  | 0.44 L/kg |
| Cc1onc(-c2c(F)cccc2Cl)c1C(=O)N[C@@H]1C(=O)N2[C@@H]1SC(C)(C)[C@@H]2C(=O)O [FLOXACILLIN] | 2.4 mL/min/kg | 1.3 h | 0.043 |  | 0.19 L/kg |
| O=c1[nH]cc(F)c(=O)[nH]1 [FLUOROURACIL] |  |  | 0.64 |  |  |
| COc1ccc(Cl)cc1C(=O)NCCc1ccc(S(=O)(=O)NC(=O)NC2CCCCC2)cc1 [GLYBURIDE] |  | 1.6 h | 0.021 | 2.2 h | 0.08 L/kg |
| CN(C)CCCN1c2ccccc2CCc2ccccc21 [IMIPRAMINE] |  |  | 0.075 |  | 12 L/kg |
| CN[C@@H]1[C@@H](O)[C@@H](O[C@@H]2[C@@H](O)[C@H](O[C@H]3O[C@H](CN)[C@@H](O)[C@H](O)[C@H]3O)[C@@H](N)C[C@H]2NC(=O)[C@@H](O)CN)OC[C@]1(C)O [ISEPAMICIN] | 1.3 mL/min/kg | 4.1 h | 0.95 | 24 h |  |
| NNC(=O)c1ccncc1 [ISONIAZID] | 7.4 mL/min/kg | 1.8 h | 1 |  | 0.82 L/kg |

| SMILES | clearance [1] | MRT [2] | fraction unbound [3] | half-life [4] | Vd [5] |
| --- | --- | --- | --- | --- | --- |
| N=C(N)c1ccc(C(=O)N[C@@H](Cc2ccc(O)cc2)C(=O)N2CCC(OCC(=O)O)CC2)cc1 [LAMIFIBAN] |  | 2.5 h | 0.94 | 2.1 h |  |
| N[C@@H](Cc1ccc(O)c(O)c1)C(=O)O [LEVODOPA] |  | 1.2 h | 0.76 | 1.3 h |  |
| C=CCN1CC[C@]23c4c5ccc(O)c4O[C@H]2C(=O)CC[C@@]3(O)[C@H]1C5 [NALOXONE] |  | 1.2 h | 0.54 | 1.1 h | 1.7 L/kg |
| O=C1CN(/N=C/c2ccc([N+](=O)[O-])o2)C(=O)N1 [NITROFURANTOIN] |  | 0.98 h | 0.17 | 0.97 h | 0.57 L/kg |
| CCN(CC)CC#CCOC(=O)C(O)(c1ccccc1)C1CCCCC1 (stereo not drawn) [OXYBUTYNIN] |  | 2.7 h | 0.0034 | 7.2 h | 0.85 L/kg |
| COc1ccc2c3c1O[C@H]1C(=O)CC[C@@]4(O)[C@@H](C2)N(C)CC[C@]314 [OXYCODONE] | 6.1 mL/min/kg | 6.8 h | 0.55 | 5.5 h |  |
| CC(=O)O[C@H]1C[C@@H]2CC[C@@H]3[C@H](CC[C@@]4(C)[C@H]3C[C@H]([N+]3(C)CCCCC3)[C@@H]4OC(C)=O)[C@@]2(C)C[C@@H]1[N+]1(C)CCCCC1 [PANCURONIUM] |  | 2.2 h | 0.09 | 1.9 h | 0.2 L/kg |
| CCC[C@H](N[C@@H](C)C(=O)N1[C@H](C(=O)O)C[C@@H]2CCCC[C@@H]21)C(=O)O [PERINDOPRILAT] | 1.7 mL/min/kg | 7.6 h | 0.16 | 29 h |  |
| CCOc1ccc(NC(C)=O)cc1 [PHENACETIN] |  | 1.1 h | 0.47 | 0.92 h | 1.4 L/kg |
| COc1ccc(-c2nc3ccc(C4=NNC(=O)CC4C)cc3[nH]2)cc1 (stereo not drawn) [PIMOBENDAN] |  | 2.2 h | 0.024 | 1.8 h | 2.04 L/kg |
| C[C@]12C=CC(=O)C=C1CC[C@@H]1[C@@H]2[C@@H](O)C[C@@]2(C)[C@H]1CC[C@]2(O)C(=O)CO [PREDNISOLONE] |  |  | 0.25 |  |  |
| CC(CN1c2ccccc2Sc2ccccc21)N(C)C (stereo not drawn) [PROMETHAZINE] |  |  | 0.09 |  |  |
| NC(=O)c1ncn([C@@H]2O[C@H](CO)[C@@H](O)[C@H]2O)n1 [RIBAVIRIN] | 5.2 mL/min/kg | 45 h | 1 | 45 h |  |
| C[C@@H](O)[C@H]1C(=O)N2C(C(=O)O)=C(SCCOC(N)=O)S[C@H]12 [Sch-34343] |  | 0.67 h | 0.35 | 0.8 h | 0.3 L/kg |
| CCCCCCCCCCNCCN[C@@]1(C)C[C@H](O[C@H]2[C@H](Oc3c4cc5cc3Oc3ccc(cc3Cl)[C@@H](O)[C@@H](NC(=O)[C@@H](CC(C)C)NC)C(=O)N[C@@H](CC(N)=O)C(=O)N[C@H]5C(=O)N[C@H]3C(=O)N[C@H](C(=O)N[C@H](C(=O)O)c5cc(O)c(CNCP(=O)(O)O)c(O)c5-c5cc3ccc5O)[C@H](O)c3ccc(c(Cl)c3)O4)O[C@H](CO)[C@@H](O)[C@@H]2O)O[C@@H](C)[C@H]1O [TELAVANCIN] | 0.2 mL/min/kg | 9.2 h | 0.07 | 6.7 h |  |
| CC[C@@]1(O)C(=O)OCc2c1cc1n(c2=O)Cc2cc3c(CN(C)C)c(O)ccc3nc2-1 [TOPOTECAN] |  |  | 0.65 |  |  |
| C[C@@H](c1ncncc1F)[C@](O)(Cn1cncn1)c1ccc(F)cc1F [VORICONAZOLE] |  | 4.4 h | 0.42 | 5.6 h | 2.2 L/kg |
| CCN(C(C)=O)c1cccc(-c2ccnc3c(C#N)cnn23)c1 [ZALEPLON] |  | 1.4 h | 0.4 |  | 1.3 L/kg |
| Cc1cn([C@H]2C[C@H](N=[N+]=[N-])[C@@H](CO)O2)c(=O)[nH]c1=O [ZIDOVUDINE] |  | 1.2 h | 0.8 | 1.3 h | 1.8 L/kg |
| Cc1ccc(-c2nc3ccc(C)cn3c2CC(=O)N(C)C)cc1 [ZOLPIDEM] | 4.3 mL/min/kg | 2.1 h |  | 1.7 h | 0.54 L/kg |
| O=C(O)Cn1c(=O)c(=O)[nH]c2cc([N+](=O)[O-])c(-n3ccnc3)cc21 [ZONAMPANEL] | 5.3 mL/min/kg | 0.6 h |  | 0.78 h | 0.19 L/kg |
| CN1CCN(C(=O)OC2c3nccnc3C(=O)N2c2ccc(Cl)cn2)CC1 (stereo not drawn) [ZOPICLONE] | 3.3 mL/min/kg | 6.6 h |  | 5.2 h | 1.3 L/kg |
| CO[C@H]1C[C@@H]2CC[C@@H](C)[C@@](O)(O2)C(=O)C(=O)N2CCCC[C@H]2C(=O)O[C@H]([C@H](C)C[C@@H]2CC[C@H](n3cnnn3)[C@H](OC)C2)CC(=O)[C@H](C)/C=C(\C)[C@@H](O)[C@@H](OC)C(=O)[C@H](C)C[C@H](C)/C=C/C=C/C=C/1C [ZOTAROLIMUS] | 0.67 mL/min/kg | 33 h |  | 35 h | 1.3 L/kg |
